# Entries after “also recorded” stand apart in the source; their conditions may differ.
# Experiments:
# LexPR transactivator [1] = biological target: T1, LexPR transactivator (Homo sapiens, UniProt P06401); assay: Trans-activation of mCherry effector in effector and double transgenic fish; assay type: in vivo, zebrafish; conditions: 1 μM
# T1 construct: expressed in transfected cells; host or cells: germline-transgenic zebrafish (Danio rerio) carrying the Ds transposon driver cassette pDs(krt8:LPR-LOP:G4) or derivatives
# T1 sequence (P06401 640-914): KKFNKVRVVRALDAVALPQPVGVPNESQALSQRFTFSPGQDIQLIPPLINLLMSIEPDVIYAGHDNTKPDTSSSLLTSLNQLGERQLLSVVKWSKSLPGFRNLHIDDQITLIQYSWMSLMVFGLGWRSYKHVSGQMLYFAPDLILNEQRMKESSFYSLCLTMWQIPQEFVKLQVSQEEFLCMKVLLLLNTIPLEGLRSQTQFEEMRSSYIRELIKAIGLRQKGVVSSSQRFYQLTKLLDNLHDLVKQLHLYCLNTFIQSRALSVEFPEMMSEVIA
# Protocol: Two independent driver lines with different LexPR transactivator expression patterns (shown on FIGS. 4A, 4D) were crossed with two independent transgenic effector lines, which carried mCherry gene under control of the LexOP. […] Images were captured at 96 hours post fertilization.
# This effector cassette harbors a gene for red fluorescent protein “mCherry” under the control of the LexOP sequence (Example 3).
# LexPR transactivator [2] = biological target: T1, LexPR transactivator; assay: RT-PCR detection of EGFP transcript after mifepristone withdrawal; assay type: in vivo, zebrafish; conditions: 5 days after withdrawal; 12 hours induction with 1 μM
# zebrafish development = assay: Side effects on development of LexPR transgenic fish upon induction; assay type: in vivo
# Excerpt: FIG. 13b: Control wild type fish. FIG. 13c: Transgenic F2 embryos harboring the LexPR driver-reporter cassette described in this manuscript.
# LexPR transactivator [3] = biological target: T1, LexPR transactivator; assay: Rate of transcription induction, whole mount in situ hybridization for EGFP transcript; assay type: in vivo, zebrafish; conditions: 1 μM
# Protocol: RNA in situ hybridization: Whole mount in situ hybridization using antisense RNA probes for full length LexPR transactivator and EGFP labeled with digoxigenin (Roche, USA) was carried out as previously described (Oxtoby and Jowett, 1993). After in situ hybridization stained embryos were mounted in PBS-glycerol and viewed using Nikon SMZ1600 stereomicroscope. Images were taken with Nikon DXM1200F digital camera with the Nikon ACT-1 software and processed using Adobe Photoshop 7.0.1 software.
# To accurately estimate the rate of induction, it is more appropriate to measure the transcript rather than the protein product, especially if the gene of interest contains sequences for RNAi, microRNA or other non-coding RNAs.
# LexPR transactivator [4] = biological target: T1, LexPR transactivator; assay: Mifepristone-induced EGFP reporter fluorescence in LexPR driver-reporter transgenic fish; assay type: in vivo, zebrafish
# Excerpt: Generating transgenic fish using Ac/Ds transposon system: Transgenic fish carrying insertions of the driver and effector constructs containing Ds cis-required sequences (as described herein) were generated as previously described (Emelyanov et al., 2006). 5-10 pg of plasmid DNA was co-injected into zebrafish embryos (yolk center) with 25-50 pg of in vitro synthesized transposase mRNA at the 1-2-cell stage. […] Only the lines that segregated as a single locus (produced 1:1 ratio when outcrossed to nontransgenic fish) were selected.
# LexPR transactivator [5] = biological target: T1, LexPR transactivator; assay: Time required to switch off EGFP reporter expression after mifepristone withdrawal; assay type: in vivo, zebrafish; parameters: key to Reporter expression, RU486 incubation / Reporter expression after RU486 withdrawal / Reporter expression, continuous induction (time of RU486 incubation): +: Fluorescence signal is similar to the control.; ±: Fluorescence signal is obviously weaker that in control.; −: No EGFP fluorescence (except autofluorescence)observed using the fluorescent stereomicroscope
# Excerpt: To avoid confusion, the corresponding developmental times are indicated. A Nikon SMZ1600 fluorescent stereomicroscope was used for rough estimation of the EGFP fluorescence.
smiles,measurement,setting,value
CC#C[C@]1(O)CC[C@H]2[C@@H]3CCC4=CC(=O)CCC4=C3[C@@H](c3ccc(N(C)C)cc3)C[C@@]21C [mifepristone],Background mCherry fluorescence in effector lines (effector cassette only),LexPR transactivator [1],No background mCherry fluorescence was detected; also recorded: not detected
same,Reporter expression in double transgenic embryos (driver and effector),LexPR transactivator [1],both reporters (EGFP/driver and mCherry/effector) were co-expressed in the same cells
same,EGFP transcript by RT-PCR after withdrawal,LexPR transactivator [2],can be detected
same,"Effect on embryo development and cell morphology, LexPR driver-reporter F2 embryos",zebrafish development; 1 μM in the growth water 10 hpf onwards,does not affect embryo development and morphology of the EGFP-positive cells
same,Side effects on zebrafish development,"zebrafish development; 10 μM at 1-cell stage, LexPR system",did not observe obvious side effects
same,Time of induction to maximum transcript level,LexPR transactivator [3],approximately nine
same,Reporter expression at lowest inducible concentration,LexPR transactivator [4]; 1 nM,significantly weaker reporter expression
same,EGFP expression induced,"LexPR transactivator [4]; 10 nM, after 24 hours of incubation",Strong EGFP expression
same,Time until EGFP fluorescence was observed after adding mifepristone,LexPR transactivator [4]; 1 μM and 100 nM final concentration in growth water,6 to 9 h
same,Lowest inducible concentration,"LexPR transactivator [4]; EGFP reporter, growth water",1 nM
same,Concentration required for effective transcription induction,LexPR transactivator [4]; in the growth water,0.01 to 1 µM
same,"Reporter expression, RU486 incubation","LexPR transactivator [5]; 1 nM, 1 hour RU486 incubation - withdrawal, at 1 h incubation, 37hpf",−
same,Reporter expression after RU486 withdrawal,"LexPR transactivator [5]; 1 nM, 1 hour RU486 incubation, 12 h after withdrawal, 49hpf",−
same,Reporter expression after RU486 withdrawal,"LexPR transactivator [5]; 1 nM, 1 hour RU486 incubation, 24 h after withdrawal, 61hpf",−
same,Reporter expression after RU486 withdrawal,"LexPR transactivator [5]; 1 nM, 1 hour RU486 incubation, 48 h after withdrawal, 85hpf",−
same,Reporter expression after RU486 withdrawal,"LexPR transactivator [5]; 1 nM, 1 hour RU486 incubation, 72 h after withdrawal, 109hpf",−
same,Reporter expression after RU486 withdrawal,"LexPR transactivator [5]; 1 nM, 1 hour RU486 incubation, 96 h after withdrawal, 133hpf",−
same,Reporter expression after RU486 withdrawal,"LexPR transactivator [5]; 1 nM, 1 hour RU486 incubation, 120 h after withdrawal, 157hpf",−
same,Reporter expression after RU486 withdrawal,"LexPR transactivator [5]; 1 nM, 1 hour RU486 incubation, 144 h after withdrawal, 181hpf",−
same,"Reporter expression, RU486 incubation","LexPR transactivator [5]; 1 nM, 12 hours RU486 incubation - withdrawal, at 12 h incubation, 48hpf",−
same,Reporter expression after RU486 withdrawal,"LexPR transactivator [5]; 1 nM, 12 hours RU486 incubation, 12 h after withdrawal, 60hpf",±
same,Reporter expression after RU486 withdrawal,"LexPR transactivator [5]; 1 nM, 12 hours RU486 incubation, 24 h after withdrawal, 72hpf",−
same,Reporter expression after RU486 withdrawal,"LexPR transactivator [5]; 1 nM, 12 hours RU486 incubation, 48 h after withdrawal, 96hpf",−
same,Reporter expression after RU486 withdrawal,"LexPR transactivator [5]; 1 nM, 12 hours RU486 incubation, 72 h after withdrawal, 120hpf",−
same,Reporter expression after RU486 withdrawal,"LexPR transactivator [5]; 1 nM, 12 hours RU486 incubation, 96 h after withdrawal, 144hpf",−
same,Reporter expression after RU486 withdrawal,"LexPR transactivator [5]; 1 nM, 12 hours RU486 incubation, 120 h after withdrawal, 168hpf",−
same,Reporter expression after RU486 withdrawal,"LexPR transactivator [5]; 1 nM, 12 hours RU486 incubation, 144 h after withdrawal, 192hpf",−
same,Minimal time after RU486 withdrawal to turn off the reporter expression,"LexPR transactivator [5]; 1 nM, 12 hours induction",1 days
same,"Reporter expression, continuous induction (time of RU486 incubation)","LexPR transactivator [5]; 1 nM, 24-156 h incubation, 60-192 hpf",±
same,"Reporter expression, continuous induction (time of RU486 incubation)","LexPR transactivator [5]; 1 nM, 1 h incubation",−
same,"Reporter expression, continuous induction (time of RU486 incubation)","LexPR transactivator [5]; 1 nM, 12 h incubation",−
same,"Reporter expression, continuous induction (time of RU486 incubation)","LexPR transactivator [5]; 1 nM, 13 h incubation, 49hpf",−
same,"Reporter expression, continuous induction (time of RU486 incubation)","LexPR transactivator [5]; 1 nM, 24 h incubation, 60hpf",±
same,"Reporter expression, RU486 incubation","LexPR transactivator [5]; 10 nM, 1 hour RU486 incubation - withdrawal, at 1 h incubation, 37hpf",−
same,Reporter expression after RU486 withdrawal,"LexPR transactivator [5]; 10 nM, 1 hour RU486 incubation, 12 h after withdrawal, 49hpf",±
same,Reporter expression after RU486 withdrawal,"LexPR transactivator [5]; 10 nM, 1 hour RU486 incubation, 24 h after withdrawal, 61hpf",−
same,Reporter expression after RU486 withdrawal,"LexPR transactivator [5]; 10 nM, 1 hour RU486 incubation, 48 h after withdrawal, 85hpf",−
same,Reporter expression after RU486 withdrawal,"LexPR transactivator [5]; 10 nM, 1 hour RU486 incubation, 72 h after withdrawal, 109hpf",−
same,Reporter expression after RU486 withdrawal,"LexPR transactivator [5]; 10 nM, 1 hour RU486 incubation, 96 h after withdrawal, 133hpf",−
same,Reporter expression after RU486 withdrawal,"LexPR transactivator [5]; 10 nM, 1 hour RU486 incubation, 120 h after withdrawal, 157hpf",−
same,Reporter expression after RU486 withdrawal,"LexPR transactivator [5]; 10 nM, 1 hour RU486 incubation, 144 h after withdrawal, 181hpf",−
same,Minimal time after RU486 withdrawal to turn off the reporter expression,"LexPR transactivator [5]; 10 nM, 1 hour induction",1 days
same,"Reporter expression, RU486 incubation","LexPR transactivator [5]; 10 nM, 12 hours RU486 incubation - withdrawal, at 12 h incubation, 48hpf",±
same,Reporter expression after RU486 withdrawal,"LexPR transactivator [5]; 10 nM, 12 hours RU486 incubation, 12 h after withdrawal, 60hpf",+
same,Reporter expression after RU486 withdrawal,"LexPR transactivator [5]; 10 nM, 12 hours RU486 incubation, 24 h after withdrawal, 72hpf",±
same,Reporter expression after RU486 withdrawal,"LexPR transactivator [5]; 10 nM, 12 hours RU486 incubation, 48 h after withdrawal, 96hpf",−
same,Reporter expression after RU486 withdrawal,"LexPR transactivator [5]; 10 nM, 12 hours RU486 incubation, 72 h after withdrawal, 120hpf",−
same,Reporter expression after RU486 withdrawal,"LexPR transactivator [5]; 10 nM, 12 hours RU486 incubation, 96 h after withdrawal, 144hpf",−
same,Reporter expression after RU486 withdrawal,"LexPR transactivator [5]; 10 nM, 12 hours RU486 incubation, 120 h after withdrawal, 168hpf",−
same,Reporter expression after RU486 withdrawal,"LexPR transactivator [5]; 10 nM, 12 hours RU486 incubation, 144 h after withdrawal, 192hpf",−
same,Minimal time after RU486 withdrawal to turn off the reporter expression,"LexPR transactivator [5]; 10 nM, 12 hours induction",2 days
same,"Reporter expression, continuous induction (time of RU486 incubation)","LexPR transactivator [5]; 10 nM, 24-156 h incubation, 60-192 hpf",+

# — patent US8852928B2, “LexA-based chemical-inducible gene expression system for use in transgenic animals” (Temasek Life Sciences Laboratory Limited, priority 2007, dated 2014)
